In article PMC7158045 (BMC Plant Biology, 2020):
Counter-ions that a name gives are not always drawn. Like-named read-outs stand apart in the source and are kept apart here.

What was measured:
Assay in all cases: biochemical
ZmDRIK1-R187-P492 = target: T1, ZmDRIK1-R187-P492 (Zea mays, UniProt C0P4K9)
T1 construct: kinase domain, R187-P492
T1 sequence (C0P4K9 1-514): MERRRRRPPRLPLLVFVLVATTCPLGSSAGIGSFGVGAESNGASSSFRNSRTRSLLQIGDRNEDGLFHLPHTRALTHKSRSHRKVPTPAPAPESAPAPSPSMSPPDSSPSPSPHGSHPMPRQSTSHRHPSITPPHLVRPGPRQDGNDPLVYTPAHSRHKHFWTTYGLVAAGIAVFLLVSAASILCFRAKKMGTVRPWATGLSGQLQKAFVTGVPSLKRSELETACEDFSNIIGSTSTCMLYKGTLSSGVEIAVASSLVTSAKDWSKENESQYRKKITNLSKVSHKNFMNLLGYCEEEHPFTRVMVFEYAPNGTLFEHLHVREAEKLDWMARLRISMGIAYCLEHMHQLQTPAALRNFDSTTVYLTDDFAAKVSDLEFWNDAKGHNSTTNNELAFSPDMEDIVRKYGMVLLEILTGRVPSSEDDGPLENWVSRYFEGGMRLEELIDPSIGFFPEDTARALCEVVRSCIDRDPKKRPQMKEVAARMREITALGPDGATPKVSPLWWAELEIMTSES

ZmDRIK1-K217-P492 = target: T2, ZmDRIK1-K217-P492 (Zea mays, UniProt C0P4K9)
T2 construct: kinase domain, K217-P492
T2 sequence (C0P4K9 1-514): T1 sequence (C0P4K9 1-514)

ZmDRIK1-K217-S514 = target: T3, ZmDRIK1-K217-S514 (Zea mays, UniProt C0P4K9)
T3 construct: kinase domain, K217-S514
T3 sequence (C0P4K9 1-514): T1 sequence (C0P4K9 1-514)

[1] = target: T4, ZmDRIK1 (DROUGHT RESPONSIVE INACTIVE KINASE 1), kinase domain (Zea mays, UniProt C0P4K9); settings: read-out: dTm B, sheet ZmDRIK1-R187-S514;; DSF, Boltzmann fit, 0.1% DMSO
T4 construct: gene ZEAMMB73_Zm00001d028770; ZmDRIK1-KD R187-S514 (kinase domain)
T4 sequence (C0P4K9 187-514): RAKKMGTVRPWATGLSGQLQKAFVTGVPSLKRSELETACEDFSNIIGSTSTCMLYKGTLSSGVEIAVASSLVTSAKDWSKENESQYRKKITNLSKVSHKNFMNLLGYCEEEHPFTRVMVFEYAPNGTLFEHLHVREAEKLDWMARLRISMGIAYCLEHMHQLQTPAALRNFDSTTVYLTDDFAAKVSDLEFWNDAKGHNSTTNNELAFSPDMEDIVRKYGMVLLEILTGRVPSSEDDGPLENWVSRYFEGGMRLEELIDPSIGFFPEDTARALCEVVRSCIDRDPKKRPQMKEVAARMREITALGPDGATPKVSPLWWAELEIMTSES

[2] = read-out: dTm B, DSF, Boltzmann fit, 0.1% DMSO
[3] = read-out: dTm B, sheet ZmDRIK1-K217-P492;, DSF, Boltzmann fit, 0.1% DMSO
[4] = read-out: dTm B, sheet ZmDRIK1-K217-S514;, DSF, Boltzmann fit, 0.1% DMSO

Compound | ΔTm at 10 µM (ZmDRIK1-R187-P492; [2]) | ΔTm at 10 µM (ZmDRIK1-K217-P492; [3]) | ΔTm at 10 µM (ZmDRIK1-K217-S514; [4]) | ΔTm at 10 µM [1] | ΔTm at 10 µM (ZmDRIK1-R187-P492; read-out: dTm B) | ΔTm at 10 µM (ZmDRIK1-K217-P492; read-out: dTm B) | ΔTm at 10 µM (ZmDRIK1-K217-S514; read-out: dTm B)
CCC[C@H](NC(=O)/C(C#N)=C/c1cccc(Br)n1)c1ccccc1 [Degrasyn (WP1130)] | -3.03 °C | -5.21 °C | -3.28 °C | -5.72 °C | – | – | –
CCCCOc1c(C(=O)c2c(F)cc(C)cc2F)c[nH]c2nncc1-2 [BMS-265246] | -0.249 °C | -1.05 °C | -0.226 °C | -0.676 °C | – | – | –
O=c1cc(N2CCOCC2)oc2c(-c3cccc4c3sc3ccccc34)cccc12 [NU7441 (KU-57788)] | -0.309 °C | -1.94 °C | -1.59 °C | -0.875 °C | – | – | –
O=C(c1cccc(Cl)c1F)N1CCN(Cc2cccc(Nc3nccs3)n2)CC1 [MK-8745] | 0.983 °C | 0.174 °C | 0.891 °C | 0.487 °C | – | – | –
O=C(NC1CCNCC1)c1n[nH]cc1NC(=O)c1c(Cl)cccc1Cl [AT7519] | 0.0148 °C | 0.0166 °C | -0.106 °C | -0.866 °C | – | – | –
CCOc1cc2ncc(C#N)c(Nc3ccc(F)c(Cl)c3)c2cc1NC(=O)/C=C/CN(C)C [Pelitinib (EKB-569)] | -0.494 °C | -0.854 °C | -0.496 °C | -0.77 °C | – | – | –
N#CCNC(=O)c1ccc(-c2ccnc(Nc3ccc(N4CCOCC4)cc3)n2)cc1 [CYT387] | -0.227 °C | -0.574 °C | -0.388 °C | -0.664 °C | – | – | –
CCN1CCN(Cc2ccc(Nc3ncc(F)c(-c4cc(F)c5nc(C)n(C(C)C)c5c4)n3)nc2)CC1 [LY2835219] | -0.433 °C | -0.986 °C | -0.201 °C | -0.878 °C | – | – | –
Cc1ccc([N+](=O)[O-])cc1S(=O)(=O)N(C)/N=C/c1cnc2ccc(Br)cn12 [PIK-75] | -0.296 °C | -1.46 °C | -0.221 °C | -0.734 °C | – | – | –
Nc1cc(C(F)(F)F)c(-c2cc(N3CCOCC3)nc(N3CCOCC3)n2)cn1 [BKM120 (NVP-BKM120)] | -0.326 °C | -1.39 °C | -0.33 °C | -0.731 °C | – | – | –
Cc1cc(N2CCOCC2)cc2[nH]c(-c3c(NC[C@@H](O)c4cccc(Cl)c4)cc[nH]c3=O)nc12 [BMS-536924] | -0.284 °C | -1.5 °C | -0.645 °C | -0.852 °C | – | – | –
CC(C)(C)c1cc(C=C(C#N)C#N)cc(C(C)(C)C)c1O [Tyrphostin 9] | -0.79 °C | -0.298 °C | -0.346 °C | -0.564 °C | – | – | –
CNC(=O)c1cccc(-c2ccc3c(N4CCOC[C@@H]4C)nc(N4CCOC[C@@H]4C)nc3n2)c1 [AZD2014] | -0.208 °C | -0.984 °C | -0.171 °C | -0.732 °C | – | – | –
O=S(=O)(c1cccc2cnccc12)N1CCCNCC1 [Fasudil (HA-1077) HCl] | -0.0771 °C | -0.949 °C | -0.253 °C | -0.908 °C | – | – | –
COc1cc(OC)c(/C=C/S(=O)(=O)Cc2ccc(OC)c(NCC(=O)O)c2)c(OC)c1 [Rigosertib (ON-01910)] | -0.217 °C | -0.805 °C | -0.421 °C | -0.824 °C | – | – | –
COc1ccc(CNC(=O)Nc2ncc([N+](=O)[O-])s2)cc1 [AR-A014418] | -0.199 °C | -0.984 °C | -0.49 °C | -1.03 °C | – | – | –
Cn1cc(-c2ccc3ncc(Cc4ccc5ncccc5c4)n3n2)cn1 [NVP-BVU972] | -0.283 °C | -0.593 °C | -0.37 °C | -0.84 °C | – | – | –
CCS(=O)(=O)Nc1ccc2c(c1)/C(=C(/Nc1ccc(CN3CCCCC3)cc1)c1ccccc1)C(=O)N2 [Hesperadin] | -0.086 °C | 0.108 °C | -0.308 °C | -0.801 °C | – | – | –
C[C@@H]1COC(Nc2ccc3ncnc(Nc4ccc(OCc5nccs5)c(Cl)c4)c3c2)=N1 [Varlitinib] | -0.314 °C | -0.993 °C | -0.516 °C | -0.97 °C | – | – | –
COc1cc2c(Oc3ccc4[nH]c(C)cc4c3F)ncnc2cc1OCCCN1CCCC1 [Cediranib (AZD2171)] | -0.191 °C | -1.09 °C | -0.229 °C | -0.769 °C | – | – | –

Compound | ΔTm at 10 µM (ZmDRIK1-R187-P492; [2]) | ΔTm at 10 µM (ZmDRIK1-K217-P492; [3]) | ΔTm at 10 µM (ZmDRIK1-K217-S514; [4]) | ΔTm at 10 µM [1] | ΔTm at 10 µM (ZmDRIK1-R187-P492; read-out: dTm B) | ΔTm at 10 µM (ZmDRIK1-K217-P492; read-out: dTm B) | ΔTm at 10 µM (ZmDRIK1-K217-S514; read-out: dTm B)
CN1CCN(c2nc(C3=C(c4c[nH]c5ccccc45)C(=O)NC3=O)c3ccccc3n2)CC1 [Sotrastaurin] | -0.608 °C | -0.642 °C | -0.412 °C | -0.541 °C | – | – | –
COc1ccc(F)c(F)c1C(=O)c1cnc(NC2CCN(S(C)(=O)=O)CC2)nc1N [R547] | -0.297 °C | -1.09 °C | -0.339 °C | -0.939 °C | – | – | –
CC(C)(C)c1cnc(CSc2cnc(NC(=O)C3CCNCC3)s2)o1 [SNS-032 (BMS-387032)] | -0.103 °C | -0.977 °C | -0.203 °C | -1.09 °C | – | – | –
Cn1cc(-c2ccc3nnc(Sc4ccc5ncccc5c4)n3n2)cn1 [SGX-523] | -0.0185 °C | -0.7 °C | -0.351 °C | -0.576 °C | – | – | –
N#CC1(c2ccc(NC(=O)c3cccnc3NCc3ccncc3)cc2)CCCC1 [Apatinib] | -0.28 °C | -0.944 °C | -0.311 °C | -0.808 °C | – | – | –
Cc1ccc(S(=O)(=O)/C=C/C#N)cc1 [BAY 11-7082] | -1.15 °C | -2.48 °C | -0.963 °C | -1.51 °C | – | – | –
Cc1cnc(Nc2ccc(N3CCN(C)CC3)cc2)nc1Nc1cccc(S(=O)(=O)NC(C)(C)C)c1 [TG101209] | -0.311 °C | -0.984 °C | -0.317 °C | -0.897 °C | – | – | –
COc1cc2ncnc(Nc3ccc(F)c(Cl)c3)c2cc1NC(=O)/C=C/CN1CCCCC1 [Dacomitinib (PF299804)] | -0.258 °C | -0.0919 °C | -0.1 °C | -0.735 °C | – | – | –
O=C1NC(=O)/C(=C/c2ccc3nccc(-c4ccncc4)c3c2)S1 [GSK1059615] | -0.283 °C | -0.796 °C | -0.279 °C | -0.862 °C | – | – | –
CS(=O)(=O)CCNCc1ccc(-c2ccc3ncnc(Nc4ccc(OCc5cccc(F)c5)c(Cl)c4)c3c2)o1 [Lapatinib (GW-572016) Ditosylate] | 1.26 °C | -0.876 °C | -16 °C | – | – | – | –
O=C(NOCC1CC1)c1ccc(F)c(F)c1Nc1ccc(I)cc1Cl [PD184352 (CI-1040)] | -0.348 °C | -1.2 °C | 0.792 °C | – | – | – | –
COc1cc(N2CCC(N3CCN(C)CC3)CC2)ccc1Nc1ncc(Cl)c(Nc2ccccc2P(C)(C)=O)n1 [AP26113] | -0.259 °C | -0.987 °C | -0.362 °C | – | – | – | –
COc1ccc(-c2ccc3ncc4c(c3c2)n(-c2ccc(N3CCNCC3)c(C(F)(F)F)c2)c(=O)n4C)cn1 [BGT226 (NVP-BGT226)] | -0.244 °C | -0.378 °C | 0.245 °C | – | – | – | –
Cn1c(Nc2ccc(C(F)(F)F)cc2)nc2cc(Oc3ccnc(-c4ncc(C(F)(F)F)[nH]4)c3)ccc21 [RAF265 (CHIR-265)] | -2.04 °C | 0.39 °C | 10.1 °C | – | – | – | –
CC(C)(C)c1nc(-c2cccc(NS(=O)(=O)c3c(F)cccc3F)c2F)c(-c2ccnc(N)n2)s1 [Dabrafenib (GSK2118436)] | -0.533 °C | -1.14 °C | -0.366 °C | – | – | – | –
COc1cc2nccc(Oc3ccc(NC(=O)Nc4ccc(F)cc4F)c(F)c3)c2cc1OC [Ki8751] | -0.397 °C | -0.321 °C | -0.589 °C | – | – | – | –
Nc1ccc(-c2ccc3ncc4ccc(=O)n(-c5cccc(C(F)(F)F)c5)c4c3c2)cn1 [Torin 2] | -0.3 °C | -0.531 °C | -0.322 °C | – | – | – | –
COc1ncccc1-c1cnn2ccc(N3CCN(C(=O)OC(C)C)CC3)nc12 [LP-935509 (AAK1)] | – | – | – | – | -0.447 °C | -0.638 °C | -0.536 °C
O=c1c(-c2ccc(O)cc2)coc2cc(O)cc(O)c12 [Genistein] | -17.5 °C | -18.8 °C | -13.4 °C | – | – | – | –
